For data set [1] the following is noted: 25° C., cited from earlier work; for Solubility of Parabens, Ethanol: solvent ethanol; for Solubility of Parabens, Propylene glycol: solvent propylene glycol; for Solubility of Parabens, Water: solvent water.
Data set [2] is classed as physicochemical. As to conditions: pH 4.5. As to the method: This water was used as a test media for determining the solubility of test/reference items. Stock solutions of concentration 1 mg/mL for test items/reference items was prepared in methanol. The stock solution will be used for preparation of calibration curve standards. Calibration curve of test/reference items was prepared by serially dilution consisting of 4-5-6 concentrations in 96 well format. […] The method was as follows: Calibration curve of test items were prepared by serial dilution consisting of 8 concentrations. […] Water, 50:50). […] 40 mg of test items were weighed into tubes. […] The initial pH of the solubility samples were recorded. […] Then, the solutions were observed visually for any precipitation. […] An aliquot of the supernatant were diluted with equal volume of methanol. […] The samples were then transferred to UV plate and scanned at λmax of that particular test/reference item. Compound #12 was transferred to auto-sampler vials and submitted for LC-MS/MS analysis.

Data set [3] deals with Aspergillus brasiliensis (ATCC 16404). Kind of data set: Anti-fungal Minimum Inhibitory Concentration (MIC) Method, microbroth dilution. The data set is classed as cell-based. The following applies: RPMI-1640, 35° C., 48 hours, pH 4.5-adjusted stock. The protocol:
(§1) Anti-Bacterial and Anti-Fungal Minimum Inhibitory Concentration (MIC) Method Method: Microbroth Dilution Method (96-well format). Test item: […] Solvent: Sterile MilliQ water and 0.1 M Citrate Buffer pH 4.5 Media used: • Bacterial: Cation-Adjusted Mueller-Hinton Broth (CAMHB) • Fungi: RPMI-1640 Fungi: • Incubation Temperature: • 25° C. (Candida albicans) • 35° C. (Aspergillus brasiliensis) • Incubation Time: 48 hours • Inoculum Size: 5×10^4 cfu/mL • Strains: • Candida albicans (ATCC 10231) • Aspergillus brasiliensis (ATCC 16404) • End point: Inhibition of growth, Spectrophotometer Reading @ 600 nm • Reference standards: […] All solubilized and pH 4.5-adjusted test compounds were filter-sterilized before subjecting to MIC study. […] All the strains were inoculated on their respective agar medium and incubated under conditions/durations detailed above. • Preparation of inoculum: • The bacterial colony suspension in 0.85% saline was adjusted to 1 McFarland's standard using […] which was further diluted to 1:100 in CAMHB. The fungal suspension for inoculation was prepared in 0.85% saline from 6 days old culture (for mold, A. brasiliensis) and from 2 days old culture (for yeast, C. albicans) from Sabouraud Dextrose agar medium. […] Micro titer plates were prepared as per the CLSI recommendations. One hundred and seventy five microliters of Cation-adjusted Muller Hinton Broth (CAMHB) was added to the first column of a 96 well flat bottom plate, which is the media control. Second column is for the stocks of the test compounds and reference standards from which dilutions are made. Then 175 μL of CAMHB was added to the 5th, 8th and 11th columns, 75 μL of CAMHB to the 4th, 7th and 10th columns and 50 μL of CAMHB to the 3rd, 6th and 9th columns and the last column was the organism control.
(In general: In broth dilution the organism is exposed to a series of concentrations in liquid medium.)

For data set [4], the system named is Candida albicans (ATCC 10231). Described as above. The data set is classed as cell-based. As to conditions: RPMI-1640, 25° C., 48 hours, pH 4.5-adjusted stock. The protocol:
as §1

The subject of data set [5] is Staphylococcus aureus (ATCC 6538). Kind of data set: Anti-bacterial Minimum Inhibitory Concentration (MIC) Method, microbroth dilution. The data set is classed as cell-based. As to conditions: CAMHB, 37° C., 24 hours, pH 4.5-adjusted stock. The protocol: as §1, with “RPMI-1640 […]” for “RPMI-1640”
The subject of data set [6] is Escherichia coli (ATCC 8739). The data set is described as above. The data set is classed as cell-based. The following applies: CAMHB, 37° C., 24 hours, pH 4.5-adjusted stock. As to the method:
as §1, with “RPMI-1640 […]” for “RPMI-1640”

In data set [7] the test system is Pseudomonas aeruginosa (ATCC 9027). The data set is described as above. The data set is classed as cell-based. The following applies: CAMHB, 37° C., 24 hours, pH 4.5-adjusted stock. As to the method: as §1, with “RPMI-1640 […]” for “RPMI-1640”
Data set [8] concerns Burkholderia cepacia (ATCC 25416). The description is as above. Format: cell-based. The following applies: CAMHB, 37° C., 24 hours, pH 4.5-adjusted stock. The protocol:
as §1, with “RPMI-1640 […]” for “RPMI-1640”

Data set [9] in a line: Determination of Dissociation Constant (pKa) by Potentiometric Titration Method. The data set is classed as physicochemical. The following applies: ultrapure water, 22° C. As to the method: Potentiometric Titration Method: A calibrated pH meter was used for the assay. 50 mL solution of each test/reference item solution (0.1 mg/mL) was added to four beakers (two for acid titration and two for base titration). 0.1 N Sodium hydroxide (NaOH) solution was prepared as titrant solution. The pH electrode was placed into the beaker containing test/reference item solution. The initial pH of the solution will be recorded. 100 μL of 0.1 N NaOH was added successively with stirring and the pH at each addition was recorded. Base titrations were carried out individually in duplicates until a sudden shift in the pH was observed.

SMILES strings stand for the structures.

In general, pKa refers to the negative logarithm of the acid dissociation constant. Higher therefore signals a weaker acid or stronger base.

As for `CCOC(=O)c1ccc(O)cc1` [Ethylparaben], in data set [1], the “Solubility of Parabens, Ethanol” value is 41 % w/w; the “Solubility of Parabens, Propylene glycol” value is listed as 20 % w/w; the “Solubility of Parabens, Water” value was 0.11 % w/w.
For `CCCCOC(=O)c1ccc(O)cc1` [Butylparaben], in data set [1], the “Solubility of Parabens, Ethanol” value was 68 % w/w; the “Solubility of Parabens, Propylene glycol” value is reported as 49 % w/w; the “Solubility of Parabens, Water” value is given as 0.02 % w/w.
Regarding `O=C(OCC(O)CO)c1ccccc1` (centres unmarked) [Compound 9, Benzoic acid 2,3-dihydroxypropyl ester], in [2], the “Solubility (wt %)” value is above 1.0 wt %. In addition, the “MIC (%) A. brasiliensis” value is above 1% in data set [3] (Table 4) and above 1.0% in [3] (Table 4, listed as #9). Moreover, the “MIC (%) C. albicans” value is above 1% in data set [4] (Table 4) and above 1.0% in [4] (Table 4, listed as #9). Besides, the “MIC (%) S. Aureus” value in data set [5] (Table 4) was found to be 0.25%. Besides, in data set [6] (Table 4), the “MIC (%) E. coli” value was found to be 0.5%. For the same molecule, the “MIC (%) P. aeruginosa” value in data set [7] (Table 4) is given as 0.5%. In [8] (Table 4), the “MIC (%) B. cepacia” value was 0.25%. Besides, in data set [9] (pH 4.5, Table 3, 0.1 mg/ml), the pKa was above 7.
With `O=C(OCCCCO)c1ccccc1` [Compound 10, Benzoic acid 4-hydroxy-butyl ester], in data set [2], the “Solubility (wt %)” value turned out to be 0.47 wt %. For the same molecule, the “MIC (%) A. brasiliensis” value in [3] (Table 4) is 0.028%. The “MIC (%) C. albicans” value in data set [4] (Table 4) turned out to be 0.115%. Also, in data set [5] (Table 4), the “MIC (%) S. Aureus” value was determined as 0.057%. Moreover, the “MIC (%) E. coli” value in data set [6] (Table 4) is 0.115%. In [7] (Table 4), the “MIC (%) P. aeruginosa” value was found to be 0.115%. Moreover, the “MIC (%) B. cepacia” value in data set [8] (Table 4) came to 0.057%. For the same molecule, in [9] (pH 4.5, Table 3, 0.1 mg/ml), the pKa was above 7.
For the molecule `O=C(O)c1ccc(OCCO)cc1` [Compound 1, 4-(2-hydroxyethoxy) benzoic acid], in [2], the “Solubility (wt %)” value was 0.2779 wt %. The “MIC (%) A. brasiliensis” value in data set [3] (Table 1) is on record as above 0.165%. Moreover, the “MIC (%) C. albicans” value in data set [4] (Table 1) is reported as above 0.165%. Further, the “MIC (%) S. Aureus” value in data set [5] (Table 1) is 0.041%. In addition, in data set [6] (Table 1), the “MIC (%) E. coli” value is 0.165%. Besides, the “MIC (%) P. aeruginosa” value in data set [7] (Table 1) came to 0.082%. Besides, the “MIC (%) B. cepacia” value in data set [8] (Table 1) is given as 0.082%. The molecule further came in with a pKa in data set [9] (pH 4.5, Table 1, 0.1 mg/ml) of 4.95.

The values above are taken from patent US11252960B2 (KIMBERLY-CLARK WORLDWIDE, INC., priority 2017, dated 2022).
